Measured values taken from patent US20240400577A1, “MODULATORS OF PROTEIN KINASES” (VIBLIOME THERAPEUTICS, LLC, priority 2021, published 2024).

Key:
Assay in all cases: Kinase panel enzymatic inhibition assay (Nanosyn)
Assay type in all cases: biochemical
Settings in all cases: compound 5 μM; ATP at Km; 30-minute pre-incubation
[1] = biological target: T1, ZAK (Homo sapiens, UniProt Q9NYL2)
T1 construct: Nanosyn (contract laboratory that ran the panel)
How it was run: (§1)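 Single-point screen: compound 5 μM, ATP at Km per kinase, 30 min pre-incubation. Readout by mobility shift (Caliper LabChip), ADP detection or TR-fluorescence. Reported as % inhibition or IC50.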

[2] = biological target: T2, SGK3 (Homo sapiens, UniProt Q96BR1)
T2 construct: Nanosyn (contract laboratory that ran the panel)
T2 sequence (Q96BR1 1-496): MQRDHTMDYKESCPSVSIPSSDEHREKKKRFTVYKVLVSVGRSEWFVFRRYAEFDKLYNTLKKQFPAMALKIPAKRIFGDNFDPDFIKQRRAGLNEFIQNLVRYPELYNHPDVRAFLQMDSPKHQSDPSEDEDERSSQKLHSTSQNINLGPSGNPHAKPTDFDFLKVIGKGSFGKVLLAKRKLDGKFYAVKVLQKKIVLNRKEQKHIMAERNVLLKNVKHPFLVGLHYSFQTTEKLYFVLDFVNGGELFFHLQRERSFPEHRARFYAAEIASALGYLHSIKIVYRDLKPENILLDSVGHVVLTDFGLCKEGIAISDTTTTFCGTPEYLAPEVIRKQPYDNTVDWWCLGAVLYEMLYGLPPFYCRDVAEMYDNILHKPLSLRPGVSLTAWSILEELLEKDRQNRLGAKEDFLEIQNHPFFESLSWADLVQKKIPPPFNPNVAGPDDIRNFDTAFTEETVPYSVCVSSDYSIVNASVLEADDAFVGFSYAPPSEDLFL
How it was run: as §1

[3] = biological target: T3, Abl2 (Homo sapiens, UniProt P42684)
T3 construct: purchased Nanosyn (contract screening)
How it was run: as §1

[4] = biological target: T4, TAOK2 (Homo sapiens, UniProt Q9UL54)
T4 construct: Nanosyn (contract laboratory that ran the panel)
T4 sequence (Q9UL54 1-1235): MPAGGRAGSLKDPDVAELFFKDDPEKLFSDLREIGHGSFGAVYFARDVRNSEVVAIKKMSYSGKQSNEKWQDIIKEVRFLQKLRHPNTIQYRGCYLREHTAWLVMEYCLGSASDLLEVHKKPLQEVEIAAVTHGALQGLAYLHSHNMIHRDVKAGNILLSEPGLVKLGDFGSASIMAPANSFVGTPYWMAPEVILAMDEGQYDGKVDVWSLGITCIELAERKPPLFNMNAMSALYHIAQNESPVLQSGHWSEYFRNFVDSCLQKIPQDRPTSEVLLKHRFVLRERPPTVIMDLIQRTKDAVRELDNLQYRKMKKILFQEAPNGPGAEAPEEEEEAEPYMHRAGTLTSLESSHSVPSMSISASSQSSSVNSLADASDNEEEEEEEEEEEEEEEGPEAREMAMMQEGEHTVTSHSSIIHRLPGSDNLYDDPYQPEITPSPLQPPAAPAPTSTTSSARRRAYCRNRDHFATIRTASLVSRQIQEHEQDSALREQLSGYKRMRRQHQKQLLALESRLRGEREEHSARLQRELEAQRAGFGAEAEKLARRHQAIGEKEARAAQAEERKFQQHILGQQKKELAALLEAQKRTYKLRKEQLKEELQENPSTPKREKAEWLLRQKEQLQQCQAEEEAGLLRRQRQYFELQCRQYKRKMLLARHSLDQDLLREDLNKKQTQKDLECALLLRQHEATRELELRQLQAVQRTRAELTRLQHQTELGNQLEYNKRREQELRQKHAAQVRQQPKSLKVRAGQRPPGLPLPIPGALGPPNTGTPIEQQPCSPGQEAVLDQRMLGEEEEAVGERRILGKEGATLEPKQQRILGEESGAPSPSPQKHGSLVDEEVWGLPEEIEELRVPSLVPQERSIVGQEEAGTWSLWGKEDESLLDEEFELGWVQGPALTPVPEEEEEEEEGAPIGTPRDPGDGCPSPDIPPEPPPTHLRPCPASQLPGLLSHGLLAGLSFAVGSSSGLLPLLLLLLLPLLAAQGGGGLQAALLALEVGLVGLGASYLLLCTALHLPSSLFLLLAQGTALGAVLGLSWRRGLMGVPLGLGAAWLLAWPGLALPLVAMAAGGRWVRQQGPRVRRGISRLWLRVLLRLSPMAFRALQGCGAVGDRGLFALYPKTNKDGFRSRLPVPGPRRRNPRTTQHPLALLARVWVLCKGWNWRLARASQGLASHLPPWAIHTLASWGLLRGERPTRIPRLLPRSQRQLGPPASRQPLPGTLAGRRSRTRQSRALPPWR
How it was run: as §1

[5] = biological target: T5, BRK (Homo sapiens, UniProt Q13882)
T5 construct: purchased Nanosyn (contract screening)
How it was run: as §1

[6] = biological target: T6, CLK4 (Homo sapiens, UniProt Q9HAZ1)
T6 construct: purchased Nanosyn (contract screening)
How it was run: as §1

[7] = system: EPH
How it was run: as §1

[8] = biological target: T7, Abl1 (Homo sapiens, UniProt P00519)
T7 construct: purchased Nanosyn (contract screening)
How it was run: as §1

[9] = biological target: T8, RET (Homo sapiens, UniProt P07949)
T8 construct: Nanosyn (contract laboratory that ran the panel)
How it was run: as §1

[10] = biological target: T9, LYNa (Homo sapiens, UniProt P07948)
T9 construct: purchased Nanosyn (contract screening)
How it was run: as §1

[11] = biological target: T10, PDGFRb (Homo sapiens, UniProt P09619)
T10 construct: Nanosyn (contract laboratory that ran the panel)
How it was run: as §1

[12] = biological target: T11, CSF1R (Homo sapiens, UniProt P07333)
T11 construct: purchased Nanosyn (contract screening)
How it was run: as §1

[13] = biological target: T12, PIKfyve (Homo sapiens, UniProt Q9Y2I7)
T12 construct: Nanosyn (contract laboratory that ran the panel)
How it was run: as §1

[14] = biological target: T13, BLK (Homo sapiens, UniProt P51451)
T13 construct: purchased Nanosyn (contract screening)
How it was run: as §1

[15] = biological target: T14, DDR1 (Homo sapiens, UniProt Q08345)
T14 construct: purchased Nanosyn (contract screening)
How it was run: as §1

T9 sequence (P07948 whole entry): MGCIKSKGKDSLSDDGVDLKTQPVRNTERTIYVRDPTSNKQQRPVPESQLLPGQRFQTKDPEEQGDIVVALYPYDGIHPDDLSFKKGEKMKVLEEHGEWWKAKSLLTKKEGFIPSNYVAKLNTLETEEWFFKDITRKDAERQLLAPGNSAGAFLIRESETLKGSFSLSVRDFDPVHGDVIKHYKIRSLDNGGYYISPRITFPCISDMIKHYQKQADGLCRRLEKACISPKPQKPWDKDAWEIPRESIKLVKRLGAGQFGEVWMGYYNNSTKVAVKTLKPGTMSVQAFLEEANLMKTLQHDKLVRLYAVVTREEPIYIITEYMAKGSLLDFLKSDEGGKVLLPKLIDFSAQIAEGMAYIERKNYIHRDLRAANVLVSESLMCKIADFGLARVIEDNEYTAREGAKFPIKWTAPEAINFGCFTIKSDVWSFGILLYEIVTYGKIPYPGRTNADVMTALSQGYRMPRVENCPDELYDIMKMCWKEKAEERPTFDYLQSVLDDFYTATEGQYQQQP
T8 sequence (P07949 29-1114): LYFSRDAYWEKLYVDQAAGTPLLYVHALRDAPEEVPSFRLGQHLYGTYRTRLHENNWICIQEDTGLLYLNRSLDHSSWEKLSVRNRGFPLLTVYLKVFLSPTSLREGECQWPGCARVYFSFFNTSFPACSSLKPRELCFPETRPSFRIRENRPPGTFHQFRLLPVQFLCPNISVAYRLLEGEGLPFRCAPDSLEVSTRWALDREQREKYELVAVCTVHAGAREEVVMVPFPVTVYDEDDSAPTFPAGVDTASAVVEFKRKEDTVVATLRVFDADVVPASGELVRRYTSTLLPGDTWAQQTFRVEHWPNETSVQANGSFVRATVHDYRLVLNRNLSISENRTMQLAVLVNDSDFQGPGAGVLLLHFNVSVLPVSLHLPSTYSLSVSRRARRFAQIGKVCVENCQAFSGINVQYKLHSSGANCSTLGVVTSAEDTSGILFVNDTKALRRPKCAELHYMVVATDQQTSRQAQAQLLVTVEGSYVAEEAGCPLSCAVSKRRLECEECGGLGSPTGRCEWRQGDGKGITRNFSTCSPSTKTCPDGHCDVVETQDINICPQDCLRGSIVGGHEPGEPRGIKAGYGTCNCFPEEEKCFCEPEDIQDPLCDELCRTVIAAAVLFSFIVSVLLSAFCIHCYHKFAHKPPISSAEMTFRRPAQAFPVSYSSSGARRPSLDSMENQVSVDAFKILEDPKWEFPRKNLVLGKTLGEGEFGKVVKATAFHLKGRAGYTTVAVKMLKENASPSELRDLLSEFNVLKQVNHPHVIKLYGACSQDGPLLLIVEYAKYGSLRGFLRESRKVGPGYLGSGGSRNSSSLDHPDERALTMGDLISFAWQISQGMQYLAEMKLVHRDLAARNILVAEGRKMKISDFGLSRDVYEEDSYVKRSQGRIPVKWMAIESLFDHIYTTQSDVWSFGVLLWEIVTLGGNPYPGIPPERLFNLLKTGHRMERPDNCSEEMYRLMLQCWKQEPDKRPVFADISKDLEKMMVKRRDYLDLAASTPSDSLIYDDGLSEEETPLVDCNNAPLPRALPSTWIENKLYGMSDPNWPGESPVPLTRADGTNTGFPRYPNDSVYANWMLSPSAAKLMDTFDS
T14 sequence (Q08345 19-913): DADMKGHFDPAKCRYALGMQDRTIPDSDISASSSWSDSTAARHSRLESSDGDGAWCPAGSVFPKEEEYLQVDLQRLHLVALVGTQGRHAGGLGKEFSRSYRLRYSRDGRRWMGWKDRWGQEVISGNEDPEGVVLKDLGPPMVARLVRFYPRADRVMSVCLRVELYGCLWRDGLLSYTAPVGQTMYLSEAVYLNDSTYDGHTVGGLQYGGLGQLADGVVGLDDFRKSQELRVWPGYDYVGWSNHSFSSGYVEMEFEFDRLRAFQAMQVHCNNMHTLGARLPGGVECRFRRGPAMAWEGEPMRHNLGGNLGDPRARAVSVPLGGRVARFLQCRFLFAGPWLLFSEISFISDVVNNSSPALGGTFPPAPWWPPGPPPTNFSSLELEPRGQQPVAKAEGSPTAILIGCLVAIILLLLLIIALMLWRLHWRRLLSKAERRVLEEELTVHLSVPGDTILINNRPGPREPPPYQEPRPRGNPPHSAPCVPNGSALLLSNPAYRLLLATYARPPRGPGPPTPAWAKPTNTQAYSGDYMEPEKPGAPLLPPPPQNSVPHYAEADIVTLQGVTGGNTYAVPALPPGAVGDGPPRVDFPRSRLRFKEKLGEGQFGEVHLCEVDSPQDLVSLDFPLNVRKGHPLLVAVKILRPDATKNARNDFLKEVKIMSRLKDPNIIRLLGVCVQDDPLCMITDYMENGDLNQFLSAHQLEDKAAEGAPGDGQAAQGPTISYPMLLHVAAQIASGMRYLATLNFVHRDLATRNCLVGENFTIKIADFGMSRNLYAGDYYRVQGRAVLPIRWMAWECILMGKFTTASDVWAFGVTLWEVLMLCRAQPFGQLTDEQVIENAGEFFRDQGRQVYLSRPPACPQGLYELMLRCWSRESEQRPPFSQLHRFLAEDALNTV
T3 sequence (P42684 whole entry): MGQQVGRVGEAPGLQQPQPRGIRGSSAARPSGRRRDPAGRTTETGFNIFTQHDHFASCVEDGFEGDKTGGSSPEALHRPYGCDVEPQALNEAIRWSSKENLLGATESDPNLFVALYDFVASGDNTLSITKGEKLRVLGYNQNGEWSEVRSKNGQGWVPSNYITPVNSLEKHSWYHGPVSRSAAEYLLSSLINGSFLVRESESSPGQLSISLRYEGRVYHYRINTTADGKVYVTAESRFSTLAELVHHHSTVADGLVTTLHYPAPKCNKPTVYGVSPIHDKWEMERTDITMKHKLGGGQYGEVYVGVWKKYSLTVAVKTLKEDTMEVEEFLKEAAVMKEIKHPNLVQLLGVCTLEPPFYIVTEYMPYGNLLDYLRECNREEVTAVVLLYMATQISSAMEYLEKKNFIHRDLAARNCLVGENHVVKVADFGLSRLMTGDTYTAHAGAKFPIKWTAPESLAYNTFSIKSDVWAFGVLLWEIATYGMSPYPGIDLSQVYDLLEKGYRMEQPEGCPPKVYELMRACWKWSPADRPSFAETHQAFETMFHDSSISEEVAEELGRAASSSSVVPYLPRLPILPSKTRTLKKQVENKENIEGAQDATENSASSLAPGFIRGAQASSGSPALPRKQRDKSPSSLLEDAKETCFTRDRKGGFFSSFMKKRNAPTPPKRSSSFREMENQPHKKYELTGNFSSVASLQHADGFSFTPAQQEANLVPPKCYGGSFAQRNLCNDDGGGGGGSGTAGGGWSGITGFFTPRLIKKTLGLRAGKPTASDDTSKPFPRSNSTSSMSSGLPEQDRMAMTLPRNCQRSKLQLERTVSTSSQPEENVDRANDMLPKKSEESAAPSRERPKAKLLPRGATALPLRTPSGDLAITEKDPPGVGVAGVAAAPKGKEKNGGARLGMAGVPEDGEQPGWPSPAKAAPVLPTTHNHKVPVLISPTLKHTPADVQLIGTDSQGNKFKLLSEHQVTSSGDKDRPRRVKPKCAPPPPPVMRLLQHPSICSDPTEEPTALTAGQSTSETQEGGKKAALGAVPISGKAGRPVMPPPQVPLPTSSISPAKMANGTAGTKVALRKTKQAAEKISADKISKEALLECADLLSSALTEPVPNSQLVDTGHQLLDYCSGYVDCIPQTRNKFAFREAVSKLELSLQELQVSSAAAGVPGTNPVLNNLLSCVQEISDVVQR
T7 sequence (P00519 whole entry): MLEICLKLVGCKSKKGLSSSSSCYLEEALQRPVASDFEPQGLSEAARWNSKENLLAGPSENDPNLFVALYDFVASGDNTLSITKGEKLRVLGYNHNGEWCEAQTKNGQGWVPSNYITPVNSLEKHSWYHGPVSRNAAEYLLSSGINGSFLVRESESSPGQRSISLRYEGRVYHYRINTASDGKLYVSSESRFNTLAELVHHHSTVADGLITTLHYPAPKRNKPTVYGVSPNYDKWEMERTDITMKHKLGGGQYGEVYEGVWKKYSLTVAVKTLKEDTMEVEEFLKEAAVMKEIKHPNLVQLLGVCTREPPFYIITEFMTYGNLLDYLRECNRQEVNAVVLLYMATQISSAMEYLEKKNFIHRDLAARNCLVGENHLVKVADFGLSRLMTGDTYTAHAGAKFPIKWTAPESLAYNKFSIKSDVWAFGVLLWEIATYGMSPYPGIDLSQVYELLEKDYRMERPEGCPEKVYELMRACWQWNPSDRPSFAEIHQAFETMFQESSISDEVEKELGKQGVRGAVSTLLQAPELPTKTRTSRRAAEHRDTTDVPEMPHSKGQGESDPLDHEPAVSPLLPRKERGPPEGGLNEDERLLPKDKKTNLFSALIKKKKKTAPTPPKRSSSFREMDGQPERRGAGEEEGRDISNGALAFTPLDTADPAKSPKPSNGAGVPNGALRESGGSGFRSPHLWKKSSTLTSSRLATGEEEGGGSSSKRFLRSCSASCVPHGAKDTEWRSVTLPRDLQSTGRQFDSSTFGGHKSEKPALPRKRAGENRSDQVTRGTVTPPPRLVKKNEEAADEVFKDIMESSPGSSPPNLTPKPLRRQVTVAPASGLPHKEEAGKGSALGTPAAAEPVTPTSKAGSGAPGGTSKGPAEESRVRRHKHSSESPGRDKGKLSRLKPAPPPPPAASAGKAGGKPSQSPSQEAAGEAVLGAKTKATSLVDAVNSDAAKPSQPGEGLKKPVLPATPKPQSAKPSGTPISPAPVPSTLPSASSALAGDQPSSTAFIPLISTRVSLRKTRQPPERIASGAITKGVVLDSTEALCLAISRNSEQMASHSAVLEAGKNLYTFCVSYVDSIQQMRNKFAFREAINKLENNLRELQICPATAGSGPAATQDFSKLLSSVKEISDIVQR

Row | inhibition at 5 µM [1] | inhibition at 5 µM [2] | inhibition at 5 µM [3] | inhibition at 5 µM [4] | inhibition at 5 µM [5] | inhibition at 5 µM [6] | kinase inhibition, EPH [7] | inhibition at 5 µM [8] | inhibition at 5 µM [9] | inhibition at 5 µM [10] | inhibition at 5 µM [11] | inhibition at 5 µM [12] | inhibition at 5 µM [13] | inhibition at 5 µM [14] | inhibition at 5 µM [15] | Compound
1 | < 79% | < 79% | < 79% | 90 to 94% | < 79% | < 79% | D (D=79% and less) | < 79% | < 79% | < 79% | < 79% | < 79% | < 79% | < 79% | ≥ 95% | Cc1ccc(NC(=O)c2cc([S+](C)[O-])n(-c3ccc(F)cc3)n2)cc1-c1cc(OCCO)nc(N2CCOCC2)c1 (stereo not drawn) [Ex10, 1-(4-fluorophenyl)-N-(3-(2-(2-hydroxyethoxy)-6-morpholinopyridin-4-yl)-4-methylphenyl)-5-(methylsulfinyl)-1H-pyrazole-3-carboxamide]
2 | < 79% | < 79% | < 79% | < 79% | < 79% | < 79% | D (D=79% and less) | < 79% | < 79% | < 79% | < 79% | < 79% | < 79% | < 79% | < 79% | Cc1ccc(NC(=O)c2cc([S+](C)[O-])n(-c3ccc(F)cc3)n2)cc1-c1cc(N2CCOCC2)c(=O)n(C)c1 (stereo not drawn) [Ex11, 1-(4-fluorophenyl)-N-(4-methyl-3-(1-methyl-5-morpholino-6-oxo-1,6-dihydropyridin-3-yl)phenyl)-5-(methylsulfinyl)-1H-pyrazole-3-carboxamide]
3 | < 79% | < 79% | < 79% | 80 to 89% | < 79% | < 79% | D (D=79% and less) | < 79% | < 79% | < 79% | < 79% | < 79% | < 79% | < 79% | 80 to 89% | Cc1ccc(NC(=O)c2cc(S(C)(=O)=O)n(-c3ccc(F)cc3)n2)cc1-c1cc(N2CCOCC2)c(=O)n(C)c1 [Ex12, 1-(4-fluorophenyl)-N-(4-methyl-3-(1-methyl-5-morpholino-6-oxo-1,6-dihydropyridin-3-yl)phenyl)-5-(methylsulfonyl)-1H-pyrazole-3-carboxamide]
4 | < 79% | < 79% | ≥ 95% | < 79% | < 79% | < 79% | D (D=79% and less) | ≥ 95% | < 79% | ≥ 95% | ≥ 95% | ≥ 95% | < 79% | < 79% | ≥ 95% | Cc1ccc(NC(=O)c2cc(S(C)(=O)=O)n(-c3ccc(F)cc3)n2)cc1Nc1nccc(-c2cccnc2N)n1 [Ex13, N-(3-((4-(2-aminopyridin-3-yl)pyrimidin-2-yl)amino)-4-methylphenyl)-1-(4-fluorophenyl)-5-(methylsulfonyl)-1H-pyrazole-3-carboxamide]
5 | 80 to 89% | < 79% | ≥ 95% | < 79% | < 79% | < 79% | D (D=79% and less) | < 79% | 80 to 89% | ≥ 95% | 90 to 94% | 90 to 94% | 80 to 89% | 80 to 89% | ≥ 95% | Cc1ccc(NC(=O)c2cc(S(C)(=O)=O)n(-c3ccc(F)cc3)n2)cc1C#Cc1cnc2cccnn12 [Ex14, 1-(4-fluorophenyl)-N-(3-(imidazo[1,2-b]pyridazin-3-ylethynyl)-4-methylphenyl)-5-(methylsulfonyl)-1H-pyrazole-3-carboxamide]
6 | < 79% | < 79% | ≥ 95% | < 79% | < 79% | < 79% | D (D=79% and less) | ≥ 95% | ≥ 95% | ≥ 95% | ≥ 95% | ≥ 95% | < 79% | < 79% | ≥ 95% | CCOC(=O)Nc1cn2nc(Nc3cc(NC(=O)c4cc(S(C)(=O)=O)n(-c5ccc(F)cc5)n4)ccc3C)ccc2n1 [Ex15, ethyl (6-((5-(1-(4-fluorophenyl)-5-(methylsulfonyl)-1H-pyrazole-3-carboxamido)-2-methylphenyl)amino)imidazo[1,2-b]pyridazin-2-yl)carbamate]
7 | < 79% | < 79% | < 79% | < 79% | ≥ 95% | < 79% | D (D=79% and less) | < 79% | < 79% | < 79% | < 79% | < 79% | < 79% | < 79% | 80 to 89% | CNC(=O)c1cc(Oc2ccc(NC(=O)c3cc(S(C)(=O)=O)n(-c4ccc(F)cc4)n3)c(F)c2)ccn1 [Ex17, 4-(3-fluoro-4-(1-(4-fluorophenyl)-5-(methylsulfonyl)-1H-pyrazole-3-carboxamido)phenoxy)-N-methylpicolinamide]
